According to patent US20060069132A1, “Azolecarboxamide herbicides” (priority 2004, published 2006):

What was measured:
Experiment in all cases: Test E pre-/postemergence herbicide test
bipinnate beggarticks = assay type: in vivo, Bidens bipinnata; conditions: scale 0 to 100
Outline: (§1)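 Greenhouse response scored visually 12 to 14 days after treatment versus controls, 0 meaning no effect and 100 complete control. Compounds, formulated with surfactant in a non-phytotoxic solvent blend, were sprayed either preemergence after sowing or postemergence at the 1- to 4-leaf stage (2 to 18 cm).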

goosegrass = assay type: in vivo, Eleusine indica
Outline: as §1

purple nutsedge = assay type: in vivo, Cyperus rotundus
Outline: as §1

common ragweed = assay type: in vivo, Ambrosia elatior
Outline: as §1

dallisgrass = assay type: in vivo, Paspalum dilatatum
Outline: as §1

southern sandbur = assay type: in vivo, Cenchrus echinatus
Outline: as §1

common sowthistle = assay type: in vivo, Sonchus oleraceous
Outline: as §1

downy bromegrass = assay type: in vivo, Bromus tectorum
Outline: as §1

field bindweed = assay type: in vivo, Convolvulus arvensis
Outline: as §1

Russian thistle = assay type: in vivo, Salsola kali
Outline: as §1

[1] = Postemergence, 500 g ai/ha, scale 0 to 100
[2] = Postemergence, 250 g ai/ha, scale 0 to 100
[3] = Preemergence, 125 g ai/ha, scale 0 to 100
[4] = Preemergence, 250 g ai/ha, scale 0 (no effect) to 100 (complete control)
[5] = Preemergence, 375 g ai/ha, scale 0 (no effect) to 100 (complete control)
[6] = Preemergence, 500 g ai/ha, scale 0 (no effect) to 100 (complete control)
[7] = postemergence, 125 g ai/ha, scale 0 to 100
[8] = postemergence, 62 g ai/ha, scale 0 to 100
[9] = Preemergence, 62 g ai/ha, scale 0 to 100

## CCn1nc(C(C)(C)C)cc1C(=O)Nc1cc(C(=S)N(C)C)ccc1F [Compound 294]
Bipinnate beggarticks; Postemergence, 500 g ai/ha
  Plant response rating, Beggarticks, Bip.: 75
Bipinnate beggarticks; Postemergence, 250 g ai/ha
  Plant response rating, Beggarticks, Bip.: 70
Bipinnate beggarticks; postemergence, 125 g ai/ha
  Plant response rating, Beggarticks, Bip.: 60
Bipinnate beggarticks; postemergence, 62 g ai/ha
  Plant response rating, Beggarticks, Bip.: 40
goosegrass; [1]
  Plant response rating, Goosegrass: 85
goosegrass; [2]
  Plant response rating, Goosegrass: 80
goosegrass; [3]
  Plant response rating, Goosegrass: 95
goosegrass; [4]
  Plant response rating, Goosegrass: 95
goosegrass; [5]
  Plant response rating, Goosegrass: 100
goosegrass; [6]
  Plant response rating, Goosegrass: 100
goosegrass; [7]
  Plant response rating, Goosegrass: 60
goosegrass; [8]
  Plant response rating, Goosegrass: 50
Purple nutsedge; [1]
  Plant response rating, Nutsedge, Purple: 90
Purple nutsedge; [2]
  Plant response rating, Nutsedge, Purple: 80
Purple nutsedge; [3]
  Plant response rating, Nutsedge, Purple: 80
Purple nutsedge; [4]
  Plant response rating, Nutsedge, Purple: 80
Purple nutsedge; [5]
  Plant response rating, Nutsedge, Purple: 80
Purple nutsedge; [6]
  Plant response rating, Nutsedge, Purple: 90
Purple nutsedge; [7]
  Plant response rating, Nutsedge, Purple: 70
Purple nutsedge; [8]
  Plant response rating, Nutsedge, Purple: 50
Common ragweed; [1]
  Plant response rating, Ragweed: 80
Common ragweed; [2]
  Plant response rating, Ragweed: 70
Common ragweed; [3]
  Plant response rating, Ragweed: 75
Common ragweed; [4]
  Plant response rating, Ragweed: 85
Common ragweed; [5]
  Plant response rating, Ragweed: 100
Common ragweed; [6]
  Plant response rating, Ragweed: 100
Common ragweed; [7]
  Plant response rating, Ragweed: 60
Common ragweed; [8]
  Plant response rating, Ragweed: 30
dallisgrass; [1]
  Plant response rating, Dallisgrass: 70
dallisgrass; [2]
  Plant response rating, Dallisgrass: 60
dallisgrass; [3]
  Plant response rating, Dallisgrass: 75
dallisgrass; [4]
  Plant response rating, Dallisgrass: 80
dallisgrass; [5]
  Plant response rating, Dallisgrass: 95
dallisgrass; [6]
  Plant response rating, Dallisgrass: 95
dallisgrass; [7]
  Plant response rating, Dallisgrass: 40
dallisgrass; [8]
  Plant response rating, Dallisgrass: 10
Southern sandbur; [1]
  Plant response rating, Sandbur: 80
Southern sandbur; [2]
  Plant response rating, Sandbur: 75
Southern sandbur; [3]
  Plant response rating, Sandbur: 70
Southern sandbur; [4]
  Plant response rating, Sandbur: 80
Southern sandbur; [5]
  Plant response rating, Sandbur: 95
Southern sandbur; [6]
  Plant response rating, Sandbur: 100
Southern sandbur; [7]
  Plant response rating, Sandbur: 50
Southern sandbur; [8]
  Plant response rating, Sandbur: 10
Common sowthistle; [1]
  Plant response rating, Sowthistle: 80
Common sowthistle; [3]
  Plant response rating, Sowthistle: 80
Common sowthistle; [4]
  Plant response rating, Sowthistle: 95
Common sowthistle; [5]
  Plant response rating, Sowthistle: 100
Common sowthistle; [6]
  Plant response rating, Sowthistle: 100
Common sowthistle; [7]
  Plant response rating, Sowthistle: 60
Common sowthistle; [8]
  Plant response rating, Sowthistle: 60
Downy bromegrass; [1]
  Plant response rating, Bromegrass, Downy: 95
Downy bromegrass; [2]
  Plant response rating, Bromegrass, Downy: 85
Downy bromegrass; [3]
  Plant response rating, Bromegrass, Downy: 80
Downy bromegrass; [4]
  Plant response rating, Bromegrass, Downy: 100
Downy bromegrass; [5]
  Plant response rating, Bromegrass, Downy: 100
Downy bromegrass; [6]
  Plant response rating, Bromegrass, Downy: 100
Downy bromegrass; [7]
  Plant response rating, Bromegrass, Downy: 75
Downy bromegrass; [8]
  Plant response rating, Bromegrass, Downy: 60
Field bindweed; [1]
  Plant response rating, Bindweed, Field: 70
Field bindweed; [2]
  Plant response rating, Bindweed, Field: 50
Field bindweed; [3]
  Plant response rating, Bindweed, Field: 10
Field bindweed; [4]
  Plant response rating, Bindweed, Field: 90
Field bindweed; [5]
  Plant response rating, Bindweed, Field: 95
Field bindweed; [6]
  Plant response rating, Bindweed, Field: 100
Field bindweed; [7]
  Plant response rating, Bindweed, Field: 50
Field bindweed; [8]
  Plant response rating, Bindweed, Field: 10
Russian thistle; [1]
  Plant response rating, Thistle: 80
Russian thistle; [2]
  Plant response rating, Thistle: 80
Russian thistle; [3]
  Plant response rating, Thistle: 50
Russian thistle; [5]
  Plant response rating, Thistle: 100
Russian thistle; [6]
  Plant response rating, Thistle: 100

## CCn1nc(C2(C)CC2)cc1C(=O)Nc1cc(C(=O)N(C)C)ccc1F [Compound 299]
Bipinnate beggarticks; Postemergence, 500 g ai/ha
  Plant response rating, Beggarticks, Bip.: 80
Bipinnate beggarticks; Postemergence, 250 g ai/ha
  Plant response rating, Beggarticks, Bip.: 60
Bipinnate beggarticks; postemergence, 125 g ai/ha
  Plant response rating, Beggarticks, Bip.: 60
Bipinnate beggarticks; postemergence, 62 g ai/ha
  Plant response rating, Beggarticks, Bip.: 40
goosegrass; [1]
  Plant response rating, Goosegrass: 85
goosegrass; [2]
  Plant response rating, Goosegrass: 80
goosegrass; [9]
  Plant response rating, Goosegrass: 100
goosegrass; [3]
  Plant response rating, Goosegrass: 100
goosegrass; [4]
  Plant response rating, Goosegrass: 100
goosegrass; [6]
  Plant response rating, Goosegrass: 100
goosegrass; [7]
  Plant response rating, Goosegrass: 80
goosegrass; [8]
  Plant response rating, Goosegrass: 60
Purple nutsedge; [1]
  Plant response rating, Nutsedge, Purple: 85
Purple nutsedge; [2]
  Plant response rating, Nutsedge, Purple: 80
Purple nutsedge; [9]
  Plant response rating, Nutsedge, Purple: 50
Purple nutsedge; [4]
  Plant response rating, Nutsedge, Purple: 80
Purple nutsedge; [7]
  Plant response rating, Nutsedge, Purple: 75
Purple nutsedge; [8]
  Plant response rating, Nutsedge, Purple: 40
Common ragweed; [1]
  Plant response rating, Ragweed: 90
Common ragweed; [2]
  Plant response rating, Ragweed: 70
Common ragweed; [9]
  Plant response rating, Ragweed: 20
Common ragweed; [3]
  Plant response rating, Ragweed: 85
Common ragweed; [4]
  Plant response rating, Ragweed: 90
Common ragweed; [6]
  Plant response rating, Ragweed: 100
Common ragweed; [7]
  Plant response rating, Ragweed: 60
Common ragweed; [8]
  Plant response rating, Ragweed: 30
dallisgrass; [1]
  Plant response rating, Dallisgrass: 85
dallisgrass; [2]
  Plant response rating, Dallisgrass: 75
dallisgrass; [9]
  Plant response rating, Dallisgrass: 75
dallisgrass; [3]
  Plant response rating, Dallisgrass: 85
dallisgrass; [4]
  Plant response rating, Dallisgrass: 100
dallisgrass; [6]
  Plant response rating, Dallisgrass: 100
dallisgrass; [7]
  Plant response rating, Dallisgrass: 70
dallisgrass; [8]
  Plant response rating, Dallisgrass: 50
Southern sandbur; [1]
  Plant response rating, Sandbur: 80
Southern sandbur; [2]
  Plant response rating, Sandbur: 70
Southern sandbur; [9]
  Plant response rating, Sandbur: 10
Southern sandbur; [3]
  Plant response rating, Sandbur: 60
Southern sandbur; [4]
  Plant response rating, Sandbur: 100
Southern sandbur; [6]
  Plant response rating, Sandbur: 100
Southern sandbur; [7]
  Plant response rating, Sandbur: 40
Southern sandbur; [8]
  Plant response rating, Sandbur: 30
Common sowthistle; [2]
  Plant response rating, Sowthistle: 95
Common sowthistle; [9]
  Plant response rating, Sowthistle: 100
Common sowthistle; [3]
  Plant response rating, Sowthistle: 100
Common sowthistle; [4]
  Plant response rating, Sowthistle: 100
Common sowthistle; [6]
  Plant response rating, Sowthistle: 95
Common sowthistle; [7]
  Plant response rating, Sowthistle: 85
Common sowthistle; [8]
  Plant response rating, Sowthistle: 30
Downy bromegrass; [1]
  Plant response rating, Bromegrass, Downy: 95
Downy bromegrass; [2]
  Plant response rating, Bromegrass, Downy: 80
Downy bromegrass; [4]
  Plant response rating, Bromegrass, Downy: 100
Downy bromegrass; [6]
  Plant response rating, Bromegrass, Downy: 100
Downy bromegrass; [7]
  Plant response rating, Bromegrass, Downy: 70
Downy bromegrass; [8]
  Plant response rating, Bromegrass, Downy: 50
Field bindweed; [1]
  Plant response rating, Bindweed, Field: 95
Field bindweed; [2]
  Plant response rating, Bindweed, Field: 80
Field bindweed; [9]
  Plant response rating, Bindweed, Field: 10
Field bindweed; [3]
  Plant response rating, Bindweed, Field: 60
Field bindweed; [4]
  Plant response rating, Bindweed, Field: 95
Field bindweed; [6]
  Plant response rating, Bindweed, Field: 100
Field bindweed; [7]
  Plant response rating, Bindweed, Field: 70
Field bindweed; [8]
  Plant response rating, Bindweed, Field: 30
Russian thistle; [1]
  Plant response rating, Thistle: 90
Russian thistle; [2]
  Plant response rating, Thistle: 70
Russian thistle; [3]
  Plant response rating, Thistle: 100
